Measured values reported in patent US8022206B2 (OSI Pharmaceuticals, LLC, priority 2008, dated 2011).

What was measured:
[1] = molecular target: MET (human) (Homo sapiens, UniProt P08581); assay: MET (human) AlphaScreen kinase assay, Km of ATP; format: biochemical; settings: AlphaScreen, Km of ATP; read-out: Met biochemical IC50
Summary of the method: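 Human MET at lot-optimised concentration in 50 mM Tris pH 7.4 buffer with 1 mM DTT, compound at 1% DMSO final; enzyme starts the reaction, 60 min at RT.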

[2] = molecular target: RON (human) (Homo sapiens, UniProt Q04912); assay: RON (human) AlphaScreen kinase assay, Km of ATP; format: biochemical; settings: AlphaScreen, Km of ATP; read-out: RON biochemical IC50
RON (human), sequence (Q04912 25-1400): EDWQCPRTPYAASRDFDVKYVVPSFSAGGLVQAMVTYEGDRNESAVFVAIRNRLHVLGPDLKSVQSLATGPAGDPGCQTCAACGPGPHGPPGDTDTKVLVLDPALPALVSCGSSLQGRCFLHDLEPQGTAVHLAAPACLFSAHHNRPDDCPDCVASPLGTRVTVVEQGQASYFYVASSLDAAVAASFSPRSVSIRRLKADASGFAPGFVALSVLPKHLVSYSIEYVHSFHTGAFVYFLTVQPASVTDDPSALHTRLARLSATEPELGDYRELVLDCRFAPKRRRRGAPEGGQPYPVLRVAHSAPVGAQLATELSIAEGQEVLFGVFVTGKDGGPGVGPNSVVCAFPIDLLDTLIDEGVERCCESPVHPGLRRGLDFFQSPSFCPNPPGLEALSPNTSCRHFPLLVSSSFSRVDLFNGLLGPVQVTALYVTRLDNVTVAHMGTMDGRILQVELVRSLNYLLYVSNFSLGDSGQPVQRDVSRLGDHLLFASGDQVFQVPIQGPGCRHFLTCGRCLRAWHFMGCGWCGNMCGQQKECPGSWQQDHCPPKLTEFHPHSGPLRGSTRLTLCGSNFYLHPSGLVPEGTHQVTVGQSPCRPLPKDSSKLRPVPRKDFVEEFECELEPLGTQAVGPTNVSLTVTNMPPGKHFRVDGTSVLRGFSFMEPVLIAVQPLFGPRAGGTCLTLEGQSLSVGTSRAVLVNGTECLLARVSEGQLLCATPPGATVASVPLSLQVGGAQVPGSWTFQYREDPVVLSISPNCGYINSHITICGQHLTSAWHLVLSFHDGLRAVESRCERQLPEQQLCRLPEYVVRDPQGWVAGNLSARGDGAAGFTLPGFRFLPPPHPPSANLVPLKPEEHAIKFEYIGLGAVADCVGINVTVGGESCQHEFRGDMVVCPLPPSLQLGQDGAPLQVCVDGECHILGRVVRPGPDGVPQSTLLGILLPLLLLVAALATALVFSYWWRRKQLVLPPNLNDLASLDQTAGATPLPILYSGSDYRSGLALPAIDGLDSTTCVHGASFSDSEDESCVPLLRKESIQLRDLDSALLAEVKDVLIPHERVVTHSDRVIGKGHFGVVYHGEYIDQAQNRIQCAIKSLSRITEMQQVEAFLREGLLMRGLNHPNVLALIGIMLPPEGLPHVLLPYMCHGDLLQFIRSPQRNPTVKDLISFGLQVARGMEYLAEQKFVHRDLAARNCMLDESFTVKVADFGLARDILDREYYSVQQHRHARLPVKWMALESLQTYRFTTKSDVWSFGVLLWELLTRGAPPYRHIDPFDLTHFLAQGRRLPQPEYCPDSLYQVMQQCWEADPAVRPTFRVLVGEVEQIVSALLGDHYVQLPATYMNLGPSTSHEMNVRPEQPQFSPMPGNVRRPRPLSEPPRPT
Summary of the method: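 Reaction was started with enzyme and run 30 min at RT. PT66 donor/acceptor beads in an EDTA-containing Tris pH 7.5 buffer were then added, and the signal was read after 1 h.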

MET (human), sequence (P08581 25-1390): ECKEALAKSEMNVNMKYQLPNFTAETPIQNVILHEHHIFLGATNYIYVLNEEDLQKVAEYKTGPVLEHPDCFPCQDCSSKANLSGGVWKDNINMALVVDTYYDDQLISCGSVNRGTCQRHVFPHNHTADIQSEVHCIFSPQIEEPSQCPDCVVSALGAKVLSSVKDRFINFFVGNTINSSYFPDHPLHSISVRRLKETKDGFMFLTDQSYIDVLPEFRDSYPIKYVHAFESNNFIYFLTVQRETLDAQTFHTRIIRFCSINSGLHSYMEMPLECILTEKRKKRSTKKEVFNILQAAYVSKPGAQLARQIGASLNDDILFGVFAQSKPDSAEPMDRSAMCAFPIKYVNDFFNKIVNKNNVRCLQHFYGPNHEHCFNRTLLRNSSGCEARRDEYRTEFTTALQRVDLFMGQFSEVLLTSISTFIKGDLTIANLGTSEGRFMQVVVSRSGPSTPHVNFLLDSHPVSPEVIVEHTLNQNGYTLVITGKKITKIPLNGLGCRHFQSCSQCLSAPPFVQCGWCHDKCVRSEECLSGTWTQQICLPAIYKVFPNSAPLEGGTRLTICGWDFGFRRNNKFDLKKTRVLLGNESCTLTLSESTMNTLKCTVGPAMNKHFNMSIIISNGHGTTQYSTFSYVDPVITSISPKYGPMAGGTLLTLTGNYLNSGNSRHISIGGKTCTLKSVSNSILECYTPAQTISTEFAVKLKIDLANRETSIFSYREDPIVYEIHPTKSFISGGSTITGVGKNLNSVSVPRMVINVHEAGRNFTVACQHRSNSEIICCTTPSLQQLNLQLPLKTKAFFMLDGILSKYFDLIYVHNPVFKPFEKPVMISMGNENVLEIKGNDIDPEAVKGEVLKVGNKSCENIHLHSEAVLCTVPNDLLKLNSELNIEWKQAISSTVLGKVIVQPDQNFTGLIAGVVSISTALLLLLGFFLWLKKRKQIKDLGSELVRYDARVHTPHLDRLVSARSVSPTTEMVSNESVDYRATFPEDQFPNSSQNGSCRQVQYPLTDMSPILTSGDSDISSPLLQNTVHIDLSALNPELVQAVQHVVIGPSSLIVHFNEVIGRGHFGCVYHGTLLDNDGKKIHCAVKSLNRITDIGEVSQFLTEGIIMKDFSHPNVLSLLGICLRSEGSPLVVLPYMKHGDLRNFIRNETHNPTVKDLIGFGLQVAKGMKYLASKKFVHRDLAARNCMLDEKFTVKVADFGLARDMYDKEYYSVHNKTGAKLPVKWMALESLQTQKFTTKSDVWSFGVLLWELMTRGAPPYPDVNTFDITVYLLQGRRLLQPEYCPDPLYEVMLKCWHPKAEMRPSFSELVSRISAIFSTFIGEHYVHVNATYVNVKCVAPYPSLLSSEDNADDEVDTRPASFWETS

C[C@@H](Oc1c(N)ncc2c(C3=CCN(C(N)=O)CC3)coc12)c1c(Cl)ccc(F)c1Cl [Example 34, 4-{6-Amino-7-[(R)-1-(2,6-dichloro-3-fluorophenyl)ethoxy]-furo[3,2-c]pyridin-3-yl}-3,6-dihydro-2H-pyridine-1-carboxamide]
IC50 [1]: < 500 nM | IC50 [2]: < 0.5 µM

Cn1c(Cc2ccccc2)ncc(-c2ccc(COc3c(N)ncc4ccoc34)c(F)c2)c1=O [Example 468, 5-[4-(6-Aminofuro[3,2-c]pyridin-7-yloxymethyl)-3-fluorophenyl]-2-benzyl-3-methyl-3H-pyrimidin-4-one]
IC50 [1]: 5000 to 20000 nM | IC50 [2]: 5 to 20 µM

CC(Oc1c(N)ncc2c(-c3cnn(C4CCNCC4)c3)coc12)c1cccc(OC(F)(F)F)c1 (stereo not shown) [Example 352, 3-(1-Piperidin-4-yl-1H-pyrazol-4-yl)-7-[1-(3-trifluoromethoxy-phenyl)ethoxy]furo[3,2-c]pyridin-6-ylamine]
IC50 [1]: 500 to 5000 nM | IC50 [2]: 0.5 to 5 µM

Cn1c(Cc2ccccc2)ncc(-c2ccc(COc3c(N)ncc4ccoc34)cc2)c1=O [Example 467, 5-[4-(6-Aminofuro[3,2-c]pyridin-7-yloxymethyl)phenyl]-2-benzyl-3-methyl-3H-pyrimidin-4-one]
IC50 [1]: > 20000 nM | IC50 [2]: 5 to 20 µM

C[C@@H](Oc1c(N)ncc2c(-c3csc(CN4CCC4)c3)coc12)c1c(Cl)ccc(F)c1Cl [Example 309, 3-(5-Azetidin-1-ylmethylthiophen-3-yl)-7-[(R)-1-(2,6-dichloro-3-fluorophenyl)ethoxy]furo[3,2-c]pyridin-6-ylamine]
IC50 [1]: < 500 nM | IC50 [2]: < 0.5 µM

CNS(=O)(=O)c1cccc(-c2coc3c(O[C@H](C)c4c(Cl)ccc(F)c4Cl)c(N)ncc23)c1 [Example 83, 3-{6-Amino-7-[(R)-1-(2,6-dichloro-3-fluorophenyl)ethoxy]-furo[3,2-c]pyridin-3-yl}-N-methylbenzenesulfonamide]
IC50 [1]: 500 to 5000 nM | IC50 [2]: 0.5 to 5 µM

C[C@@H](Oc1c(N)ncc2c(-c3cccn3C)coc12)c1c(Cl)ccc(F)c1Cl [Example 121, 7-[(R)-1-(2,6-Dichloro-3-fluorophenyl)ethoxy]-3-(1-methyl-1H-pyrrol-2-yl)furo[3,2-c]pyridin-6-ylamine]
IC50 [1]: 500 to 5000 nM | IC50 [2]: 0.5 to 5 µM

C[C@@H](Oc1c(N)ncc2c(C3=CCN(c4c(N)c(=O)c4=O)CC3)coc12)c1c(Cl)ccc(F)c1Cl [Example 205, 3-Amino-4-(4-{6-amino-7-[(R)-1-(2,6-dichloro-3-fluorophenyl)ethoxy]-furo[3,2-c]pyridin-3-yl}-3,6-dihydro-2H-pyridin-1-yl)-cyclobut-3-ene-1,2-dione]
IC50 [1]: < 500 nM | IC50 [2]: 0.5 to 5 µM

C[C@@H](Oc1c(N)ncc2c(C3=CCN(S(=O)(=O)C4CC4)CC3)coc12)c1c(Cl)ccc(F)c1Cl [Example 48, 3-(1-Cyclopropanesulfonyl-1,2,3,6-tetrahydropyridin-4-yl)-7-[(R)-1-(2,6-dichloro-3-fluorophenyl)-ethoxy]-furo[3,2-c]pyridin-6-ylamine]
IC50 [1]: < 500 nM | IC50 [2]: 0.5 to 5 µM

CC(Oc1c(N)ncc2c(-c3cnn(C4CCNCC4)c3)coc12)c1cccc(-c2ccn[nH]2)c1 (stereo not shown) [Example 446]
IC50 [1]: 500 to 5000 nM | IC50 [2]: < 0.5 µM

CC(Oc1c(N)ncc2c(-c3cnn(C4CCNCC4)c3)coc12)c1ccc(Cl)c(F)c1 (stereo not shown) [Example 381, 7-[1-(4-Chloro-3-fluorophenyl)ethoxy]-3-(1-piperidin-4-yl-1H-pyrazol-4-yl)furo[3,2-c]pyridin-6-ylamine]
IC50 [1]: < 500 nM | IC50 [2]: < 0.5 µM

C[C@@H](Oc1c(N)ncc2c(Br)coc12)c1c(Cl)ccc(F)c1Cl [Example 2, 3-Bromo-7-[(R)-1-(2,6-dichloro-3-fluorophenyl)-ethoxy]-furo[3,2-c]pyridin-6-ylamine]
IC50 [1]: 500 to 5000 nM | IC50 [2]: 5 to 20 µM

C[C@@H](Oc1c(N)ncc2c(C3=CCN(C(=O)[C@H](N)Cc4cnc[nH]4)CC3)coc12)c1c(Cl)ccc(F)c1Cl [Example 264, (2R)-2-Amino-1-[4-{6-amino-7-[(1R)-1-(2,6-dichloro-3-fluoro-phenyl)ethoxy]furo[3,2-c]pyridin-3-yl}-3,6-dihydropyridin-1(2H)-yl]-3-(1H-imidazol-5-yl)propan-1-one]
IC50 [1]: < 500 nM | IC50 [2]: 5 to 20 µM

C[C@@H](Oc1c(N)ncc2c(-c3ccc(C=O)s3)coc12)c1c(Cl)ccc(F)c1Cl [Example 210, 5-{6-Amino-7-[(R)-1-(2,6-dichloro-3-fluorophenyl)ethoxy]-furo[3,2-c]pyridin-3-yl}-thiophene-2-carbaldehyde]
IC50 [1]: 500 to 5000 nM | IC50 [2]: 0.5 to 5 µM

C[C@@H](Oc1c(N)ncc2c(-c3ccc(N)cc3)coc12)c1c(Cl)ccc(F)c1Cl [Example 77, 3-(4-Aminophenyl)-7-[(R)-1-(2,6-dichloro-3-fluorophenyl)-ethoxy]furo[3,2-c]pyridin-6-ylamine]
IC50 [1]: 500 to 5000 nM | IC50 [2]: 0.5 to 5 µM

C[C@@H](Oc1c(N)ncc2c(-c3ccc(NCCN4CCOCC4)nc3)coc12)c1c(Cl)ccc(F)c1Cl [Example 104, 7-[(R)-1-(2,6-Dichloro-3-fluorophenyl)ethoxy]-3-[6-(2-morpholin-4-yl-ethylamino)pyridin-3-yl]furo[3,2-c]pyridin-6-ylamine]
IC50 [1]: < 500 nM | IC50 [2]: 0.5 to 5 µM

CC(=O)Nc1ccc(-c2coc3c(O[C@H](C)c4c(Cl)ccc(F)c4Cl)c(N)ncc23)cn1 [Example 120, N-(5-{6-Amino-7-[(R)-1-(2,6-dichloro-3-fluorophenyl)ethoxy]furo[3,2-c]pyridin-3-yl}pyridin-2-yl)acetamide]
IC50 [1]: 500 to 5000 nM | IC50 [2]: 0.5 to 5 µM

C[C@H](N)C(=O)N1CC=C(c2coc3c(O[C@H](C)c4c(Cl)ccc(F)c4Cl)c(N)ncc23)CC1 [Example 251, (2S)-2-Amino-1-[4-{6-amino-7-[(1R)-1-(2,6-dichloro-3-fluoro-phenyl)ethoxy]furo[3,2-c]pyridin-3-yl}-3,6-dihydropyridin-1(2H)-yl]propan-1-one]
IC50 [1]: < 500 nM | IC50 [2]: < 0.5 µM

C[C@@H](Oc1c(N)ncc2c(CO)coc12)c1c(Cl)ccc(F)c1Cl [Example 194, {6-Amino-7-[(R)-1-(2,6-dichloro-3-fluorophenyl)ethoxy]furo[3,2-c]pyridin-3-yl}-methanol]
IC50 [1]: 500 to 5000 nM | IC50 [2]: 0.5 to 5 µM

C[C@@H](Oc1c(N)ncc2c(-c3ccc(C(=O)NCC(C)(C)CN(C)C)cc3)coc12)c1c(Cl)ccc(F)c1Cl [Example 298, 4-{6-Amino-7-[(R)-1-(2,6-dichloro-3-fluorophenyl)ethoxy]furo[3,2-c]pyridin-3-yl}-N-(3-dimethylamino-2,2-dimethylpropyl)benzamide]
IC50 [1]: < 500 nM | IC50 [2]: 0.5 to 5 µM

C[C@@H](Oc1c(N)ncc2c(-c3cccc(O)c3)coc12)c1c(Cl)ccc(F)c1Cl [Example 128, 3-{6-Amino-7-[(R)-(2,6-dichloro-3-fluorophenyl)ethoxy]-furo[3,2-c]pyridin-3-yl}phenol]
IC50 [1]: 500 to 5000 nM | IC50 [2]: 0.5 to 5 µM

C[C@@H](Oc1c(N)ncc2c(-c3cc(C(N)=O)cs3)coc12)c1c(Cl)ccc(F)c1Cl [Example 326, 5-{6-Amino-7-[(R)-1-(2,6-dichloro-3-fluorophenyl)ethoxy]furo[3,2-c]pyridin-3-yl}thiophene-3-carboxamide]
IC50 [1]: 500 to 5000 nM | IC50 [2]: 5 to 20 µM

Cn1c(Cc2ccccc2)ncc(-c2ccc(COc3c(N)ncc4c(-c5cnn(C6CCNCC6)c5)coc34)cc2)c1=O [Example 462, 5-{4-[6-Amino-3-(1-piperidin-4-yl-1H-pyrazol-4-yl)-furo[3,2-c]pyridin-7-yloxymethyl]-phenyl}-2-benzyl-3-methyl-3H-pyrimidin-4-one]
IC50 [1]: < 500 nM | IC50 [2]: < 0.5 µM

CC(Oc1c(N)ncc2c(-c3cnn(C4CCNCC4)c3)coc12)c1ccc(C(N)=O)cc1 (stereo not shown) [Example 420, 4-{1-[6-Amino-3-(1-piperidin-4-yl-1H-pyrazol-4-yl)furo[3,2-c]pyridin-7-yloxy]ethyl}benzamide]
IC50 [1]: 500 to 5000 nM | IC50 [2]: 5 to 20 µM

CC(C)C(=O)N1CC=C(c2coc3c(O[C@H](C)c4c(Cl)ccc(F)c4Cl)c(N)ncc23)CC1 [Example 15, 1-(4-{6-Amino-7-[(R)-1-(2,6-dichloro-3-fluorophenyl)-ethoxy]-furo[3,2-c]pyridin-3-yl}-3,6-dihydro-2H-pyridin-1-yl)-2-methylpropan-1-one]
IC50 [1]: 500 to 5000 nM | IC50 [2]: 0.5 to 5 µM

C[C@@H](Oc1c(N)ncc2c(C3=CCN(C(=O)[C@H]4CCNC4)CC3)coc12)c1c(Cl)ccc(F)c1Cl [Example 237, (4-{6-Amino-7-[(R)-1-(2,6-dichloro-3-fluorophenyl)ethoxy]-furo[3,2-c]pyridin-3-yl}-3,6-dihydro-2H-pyridin-1-yl)-(S)-pyrrolidin-3-ylmethanone]
IC50 [1]: < 500 nM | IC50 [2]: < 0.5 µM

C[C@@H](Oc1c(N)ncc2c(C3=CCN(C(=O)C4CCNCC4)CC3)coc12)c1c(Cl)ccc(F)c1Cl [Example 21, (4-{6-Amino-7-[(R)-1-(2,6-dichloro-3-fluorophenyl)-ethoxy]-furo[3,2-c]pyridin-3-yl}-3,6-dihydro-2H-pyridin-1-yl)-piperidin-4-ylmethanone]
IC50 [1]: < 500 nM | IC50 [2]: < 0.5 µM

C[C@@H](Oc1c(N)ncc2c(C3=CCN(C(=O)[C@H](O)c4ccccc4)CC3)coc12)c1c(Cl)ccc(F)c1Cl [Example 266, (2R)-1-[4-{6-Amino-7-[(1R)-1-(2,6-dichloro-3-fluorophenyl)ethoxy]furo[3,2-c]pyridin-3-yl}-3,6-dihydropyridin-1(2H)-yl]-2-hydroxy-2-phenylethanone]
IC50 [1]: 500 to 5000 nM | IC50 [2]: 0.5 to 5 µM

C[C@@H](Oc1c(N)ncc2c(-c3ccc(CN4CCC(O)CC4)s3)coc12)c1c(Cl)ccc(F)c1Cl [Example 216, 1-(5-{6-Amino-7-[(R)-1-(2,6-dichloro-3-fluorophenyl)ethoxy]-furo[3,2-c]pyridin-3-yl}-thiophen-2-ylmethyl)piperidin-4-ol]
IC50 [1]: < 500 nM | IC50 [2]: < 0.5 µM
